We go through one compound from patent publication US20170182080A1, “FUNCTIONAL SCAFFOLD FOR TISSUE REPAIR AND REGENERATION” (priority 2014, published 2017).

The subject of assay [1] is rat adipose derived cells. The assay is described as follows: Ki-67 proliferation marker immunohistochemical staining in 3D TG-Gel culture. It counts as cell-based. On the procedure: 10^6/m1 rat adipose derived cells was suspended in the gelatin-transglutaminase crosslinked gel also referred to TG-Gel. Gel concentrations ranged from 3%, 4.5%, 6%, and 7.5%. A cell suspension in 20 μL volume was transferred in each well of 48 well culture plate followed by incubation at 37° C. for 30 min for gelation. 1.0 ml of medium (10%FBS/DMEM) with 5 nM Aza was added in each well and the plate was placed in a 5% CO2 37° C. incubator for 5 day culture. At day 5, cell proliferation marker (Ki-67) immune histochemical staining was performed on 3D culture. Medium without Aza was used as control.
The detection of Ki67, a proliferation marker, was performed using Anti-Ki-67 (Rabbit Monoclonal antibody, Clone SP6, from Thermo Scientific).

Assay [2] relates to rat adipose derived cells. As to the kind of experiment: Alkaline phosphatase (ALP) activity, osteogenic differentiation in 3D TG-Gel culture. It counts as cell-based. The settings on record: day 5. On the procedure: (§1) Using the matrix as described above, the medium was changed to regular growth medium at day 5 and maintained for 14 days. Alkaline phosphatase (ALP) activity and staining were performed to characterize early osteogenesis at day 5 and calcium staining at day 14. ALP activity was determined by biochemical assay based on conversion of p-nitrophenyl phosphate to p-nitrophenol (pNPP), which was measured spectrophotometrically at 405 nm absorbance. Briefly, TG-Gel-Cell, a transglutaminase crosslinked gelatin gel and cell mixture, construct was washed twice with PBS and homogenized with buffer solution (0.25% TritonX-100 in PBS). After three freezing-thawing cycles, cells were released from TG-Gel by adding 50 μL of 0.25% trypsin and incubated at 37° C. for 4 hours. ALP activity was then quantified by using p-NPP as a substrate (Pierce, USA). The absorbance was measured by a multiplate reader (Molecular Devices, CA) after 30 minutes of incubation at 37° C. The ALP activity was specified as an arbitrary unit of ALP absorbance that normalized with cell numbers. Alizarin Red S staining as late marker of osteogenic differentiation was performed to determine the degree of calcium deposition as described. […] The supernatant was collected and absorbance was measured by a multiplate reader (Molecular Devices, CA).

The subject of assay [3] is rat adipose derived cells. The assay is described as follows: Alizarin Red S calcium deposition, osteogenic differentiation in 3D TG-Gel culture. It counts as cell-based. As to conditions: day 14. On the procedure:
as §1, with “CA). […]” for “CA).”

In the next assay the test system is adipose cell 3D culture. As to the kind of experiment: Anti-MyoD staining, myogenesis differentiation in adipose cell 3D culture. The assay is classed as cell-based. The settings on record: w/AZA-CR. From the text:
A myogenic marker such as MyoD was stained on day 14 adipose cell 3D culture. The anti-MyoD antibody is a monoclonal available from Pierce.

The next assay concerns MSC or adipose cells. As to the kind of experiment: Anti-N-cadherin staining, cardiomyocyte differentiation. It counts as cell-based. The settings on record: w/AZA-CR; 4.5% TG-Gel.
For the next assay, the system named is Fisher rats. The assay is described as follows: Cartilage defect model (osteochondral defect in trochlear groove), histology. As to conditions: 4.5% Tg-Gel + 50 μL Aza (500 nM) implanted in defect; at 7 days; cell morphology resembles chondrogenic cells. It counts as in vivo, rat. On the procedure: Fisher rats (7-8-weeks old, 200-250 g each) were used in this study. They were randomly enrolled into two experimental groups,A, 4.5% Tg-Gel +50 μL PBS and B, 4.5% Tg-Gel +50 μL Aza (500 nM), 4 animals per group. A 3-mm diameter×2-mm deep osteochondral defect was drilled into the rat trochlear groove, using a dermal biopsy punch (Miltex, Inc.). Implant gel was placed in the defect area. Skin was closed with 4-0 suture. […]
Fisher rats (7-8-weeks old, 200-250 g each) were used in this study. They were randomly enrolled into two experimental groups,A, 4.5% Tg-Gel+50 μL PBS and B, 4.5% Tg-Gel+50 μL Aza (500 nM), 4 animals per group. A 3-mm diamete×2-mm deep osteochondral defect was drilled into the rat trochlear groove, using a dermal biopsy punch (Miltex, Inc.). Implant gel was placed in the defect area. Skin was closed with 4-0 suture. […]

Assay [4] relates to >8 month old retired rats. The assay is described as follows: Cranial defect model, bone growth and healing by histology. It counts as in vivo, rat. The settings on record: 500 nM Aza in collagen sponge; 5 mm skull defect; no exogenous BMP-2; four weeks. On the procedure:
Collagen matrix (as described above) was prepared and cut into 5 mm discs. An 5 mm diameter circular opening was created in the skull of >8 month old retired rats using circular drill bit including a lip to restrict the depth of the circular cutting. 500 nM of Aza was applied directly into the collagen sponge before implantation. Control included collagen discs without added Aza-CR but same volume of PBS. After four weeks of implantation, bone growth and healing status were evaluated histologically.

SMILES strings stand for the structures.

In the case of `Nc1ncn([C@@H]2O[C@H](CO)[C@@H](O)[C@H]2O)c(=O)n1` [AZA-CR, 5-azacytidine], the “Ki67 positive staining, Aza group versus control” value was “no difference” in assay [1] (3%-4.5% gel condition) and “significantly more positive stained cells” in assay [1] (6%-7% gel condition, evenly distributed in whole 3D construct). In addition, the “Anti - Ki67, Center” value in assay [1] (w/AZA-CR (5 nM Aza in medium), 4.5% TG-Gel, day 5) is approximately 30%. The “Anti - Ki67, Center and Peripheral (evenly distributed)” value in assay [1] (w/AZA-CR (5 nM Aza in medium), 6% TG-Gel, day 5) is “Evenly distributed (~80%)”; in assay [1] (w/AZA-CR (5 nM Aza in medium), 7.5% TG-Gel, day 5), “Evenly distributed (~50%)”. Also, the ALP activity result in assay [2] (versus without AZA-CR) is reported as “enhanced”. Further, in assay [2] (with and without AZA-CR), the “TG-Gel concentration at which ALP peaked” value is given as 6 % TG-Gel. Moreover, the calcium deposition result in assay [3] (versus without AZA-CR) is listed as “enhanced”. For the same compound, the “TG-Gel concentration at which calcium deposition peaked” value in assay [3] (with and without AZA-CR) is 9 % TG-Gel. Besides, the figures for the “Anti-MyoD on day 14, Center and Peripheral (evenly distributed)” value in the assay on adipose cell 3D culture (4.5% TG-Gel) and with adipose cell 3D culture (6% TG-Gel) were approximately 80% Evenly Distributed and approximately 70% Evenly Distributed, respectively. The “Anti-N-Cadherin, Center” value in the assay on MSC or adipose cells is listed as approximately 50%. Moreover, the “histology of osteochondral defect site, area adjacent to subchondral bone” value with Fisher rats is recorded as “neo cell infiltration”. Further, in assay [4], the “bone remodeling at the bony defect site” value is listed as “significant bone remodeling”.
